Values of other authors in patent US20230165822A1, “URINARY ALKALIZING MEDICINAL AND/OR PHARMACEUTICAL COMPOSITION FOR THE ORAL TREATMENT OF INTERSTITIAL CYSTITIS / BLADDER PAIN SYNDROME (IC/BPS) AND FORMULATION THEREOF” (priority 2020, published 2023).

Settings: in vivo

## CC(=O)/N=c1/sc(S(N)(=O)=O)nn1C [Methazolamide]
  share reaching the bladder: only a fraction
